Results published in EPA's ToxRefDB 2.

Columns and labels:
rabbit [1] = conditions: Prenatal developmental toxicity study; Oral; Gavage/Intubation; dose end: 19 GD; group: maternal; reproductive / reproductive performance / aborted / aborted + systemic / in life observation / food consumption / food consumption + …
rat [2] = conditions: Fertility (Segment I), Oral, Gavage/Intubation, dose end: 1 generation
rat [3] = conditions: Fertility (Segment I), Oral, Gavage/Intubation, dose end: 1 generation, group: parental
rat [4] = conditions: Prenatal developmental toxicity study; sprague dawley; Oral; Gavage/Intubation; dose end: 18 GD; group: maternal; systemic / in life observation / body weight / body weight gain + systemic / in life observation / food consumption / food consumption
rabbit [5] = conditions: Sub-acute repeat dose toxicity, Oral, Gavage/Intubation, dose end: 13 day
rat [6] = conditions: Multigenerational reproductive toxicity study; other; Oral; Feed; dose end: 3 generation; group: parental; systemic / in life observation / body weight / body weight
rat [7] = conditions: Prenatal developmental toxicity study, sprague dawley, Oral, Gavage/Intubation, dose end: 15 GD
mouse [8] = conditions: Carcinogenicity; cd1; Oral; Feed; dose end: 18 month; group: systemic; systemic / organ weight / liver / absolute + systemic / organ weight / liver / relative to body weight + systemic / pathology microscopic / …
dog [9] = conditions: Chronic toxicity, beagle, Oral, Feed, dose end: 52 week, group: systemic
mouse [10] = conditions: Carcinogenicity; other; Oral; Feed; dose end: 18 month; group: systemic; systemic / pathology microscopic / liver / hypertrophy + systemic / pathology microscopic / liver / necrosis
dog [11] = conditions: Chronic toxicity; beagle; Oral; Feed; dose end: 52 week; group: systemic; systemic / organ weight / liver / absolute + systemic / organ weight / liver / relative to body weight
mouse [12] = conditions: Subchronic oral toxicity in rodents, cd1, Feed, dose end: 13 week, group: systemic, systemic / pathology microscopic / liver / cytomegaly + systemic / pathology microscopic / spleen / hematopoietic cell proliferation + …
rat [13] = conditions: Combined chronic toxicity/carcinogenicity; fischer; Oral; Feed; dose end: 104 week; group: systemic; systemic / hematology / methemoglobin / methemoglobin + systemic / pathology microscopic / kidney / mineralization + systemic / pathology …
rabbit [14] = conditions: Prenatal developmental toxicity study, new zealand white, Oral, Gavage/Intubation, dose end: 18 GD
rat [15] = conditions: Multigenerational reproductive toxicity study, sprague dawley, Oral, Feed, dose end: 2 generation
dog [16] = conditions: Subchronic oral toxicity in nonrodent, beagle, Feed, dose end: 13 week, group: systemic, systemic / clinical chemistry / alanine aminotransferase (alt/sgpt) / alanine aminotransferase (alt/sgpt) + systemic / clinical chemistry / …
rat [17] = conditions: Subchronic oral toxicity in rodents, fischer, Feed, dose end: 84 day, group: systemic, systemic / clinical chemistry / thyroxine (t4) / thyroxine (t4)
rat [18] = conditions: Prenatal developmental toxicity study, sprague dawley, Oral, Gavage/Intubation, dose end: 15 GD; remark: listed apart in the source
mouse [19] = conditions: Carcinogenicity, cd1, Oral, Feed, dose end: 20 month, group: systemic
rat [20] = conditions: Multigenerational reproductive toxicity study, other, Oral, Feed, dose end: 2 generation
rat [21] = conditions: Combined chronic toxicity/carcinogenicity, sprague dawley, Oral, Feed, dose end: 106 week, group: systemic
dog [22] = conditions: Subchronic oral toxicity in nonrodent, beagle, Capsule, dose end: 13 week, group: systemic, systemic / hematology / blood clotting / blood clotting - activated partial thromboplastin time
dog [23] = conditions: Chronic toxicity; beagle; Oral; Capsule; dose end: 52 week; group: systemic; systemic / clinical chemistry / alkaline phosphatase (alp/alk) / alkaline phosphatase (alp/alk) + systemic / hematology / blood clotting / …
rat [24] = conditions: Subchronic oral toxicity in rodents, sprague dawley, Feed, dose end: 90 day, group: systemic
mouse [25] = conditions: Carcinogenicity; cd1; Oral; [Not Specified]; dose end: 79 week; group: systemic; systemic / hematology / erythrocyte (rbc) count differential / erythrocyte (rbc) + systemic / hematology / hematocrit (hct) / hematocrit (…
rat [26] = conditions: Subchronic oral toxicity in rodents, other, Feed, dose end: 13 week
[27] = group: maternal, reproductive / reproductive performance / estrous cycle / abnormal
[28] = group: parental, systemic / in life observation / food consumption / food consumption
[29] = systemic / in life observation / body weight / body weight + systemic / in life observation / food consumption / food consumption + systemic…
[30] = group: maternal, reproductive / reproductive performance / aborted / aborted + reproductive / reproductive performance / resorptions / resorptions
[31] = group: systemic, systemic / in life observation / body weight / body weight gain + systemic / in life observation / food consumption / food consumption
[32] = group: developmental, developmental / developmental malformation / bone / delayed ossification
[33] = group: maternal, systemic / in life observation / body weight / body weight gain
[34] = systemic / in life observation / body weight / body weight gain
[35] = group: developmental, developmental / developmental malformation / bone / full supernumerary + developmental / developmental malformation / bone / supernumerary
[36] = group: developmental, developmental / developmental malformation / bone / full supernumerary + developmental / developmental malformation / bone / supernumerary…
[37] = group: maternal, systemic / pathology microscopic / liver / hypertrophy + systemic / pathology microscopic / liver / vacuolization
[38] = group: maternal, systemic / pathology microscopic / liver / hypertrophy + systemic / pathology microscopic / liver / vacuolization + systemic / in life …
[39] = group: offspring, developmental / offspring survival late / viability index / viability index + reproductive / offspring survival early / offspring survival …
[40] = group: parental, systemic / pathology microscopic / liver / congestion
[41] = total + systemic / clinical chemistry / phosphorus / phosphorus + systemic…
[42] = group: developmental, developmental / developmental malformation / bone / delayed ossification + developmental / developmental malformation / bone / full …
[43] = group: maternal, systemic / in life observation / body weight / body weight gain + systemic / in life observation / body weight / body weight + systemic / in…
[44] = systemic / pathology microscopic / eye / cataract
[45] = systemic / pathology microscopic / eye / cataract + systemic / hematology / erythrocyte (rbc) count differential / erythrocyte (rbc) + …
[46] = group: offspring, developmental / offspring survival late / viability index / viability index
[47] = group: offspring, developmental / offspring survival late / viability index / viability index + systemic / in life observation / body weight / offspring (pup…
[48] = group: parental, systemic / organ weight / kidney / absolute
[49] = group: parental, systemic / organ weight / kidney / absolute + systemic / organ weight / kidney / relative to body weight + systemic / organ weight / liver…
[50] = systemic / organ weight / spleen / absolute + systemic / organ weight / liver / relative to body weight
[51] = systemic / urinalysis / sediment microscopic / epithelial cells
[52] = systemic / urinalysis / sediment microscopic / epithelial cells + systemic / organ weight / liver / relative to body weight
[53] = group: cholinesterase, cholinesterase / cholinesterase / cholinesterase / cholinesterase (che)
[54] = group: systemic, systemic / organ weight / liver / relative to body weight + systemic / clinical chemistry / [other] / [other] + systemic / in life …

## CNCc1ccc(NC(=O)c2c[nH]c3c2C(=O)CCC3)cc1
Rabbit [1]
  LEL: 300 mg/kg/day
  LOAEL: > 300 mg/kg/day
  NEL: 100 mg/kg/day
  NOAEL: ≥ 300 mg/kg/day
Rat [2]; [27]
  LEL: 250 mg/kg/day
  LOAEL: > 1000 mg/kg/day
  NEL: 25 mg/kg/day
  NOAEL: ≥ 1000 mg/kg/day
Rat [2]; [28]
  LEL: 1000 mg/kg/day
  LOAEL: > 1000 mg/kg/day
  NEL: 250 mg/kg/day
  NOAEL: ≥ 1000 mg/kg/day
Rat [3]; [29]
  LOAEL: > 1000 mg/kg/day
  NEL: 25 mg/kg/day
  NOAEL: ≥ 1000 mg/kg/day
Rat [3]; systemic / in life observation / body weight / body weight + systemic / pathology gross / intestine large / dilatation
  LEL: 250 mg/kg/day
Rat [4]
  LEL: 250 mg/kg/day
  LOAEL: > 1000 mg/kg/day
  NEL: 25 mg/kg/day
  NOAEL: ≥ 1000 mg/kg/day
Rabbit [5]; [30]
  LEL: 300 mg/kg/day
  LOAEL: > 300 mg/kg/day
  NEL: 150 mg/kg/day
  NOAEL: ≥ 300 mg/kg/day
Rabbit [5]; [31]
  LEL: 300 mg/kg/day
  LOAEL: > 300 mg/kg/day
  NEL: 150 mg/kg/day
  NOAEL: ≥ 300 mg/kg/day

## O=C(O)Cc1c(Cl)ccc(Cl)c1Cl [Chlorfenac]
Rat [6]
  LEL: 125 mg/kg/day
  LOAEL: > 125 mg/kg/day
  NEL: 25 mg/kg/day
  NOAEL: ≥ 125 mg/kg/day
Rat [7]; [32]
  LEL: 300 mg/kg/day
  LOAEL: > 300 mg/kg/day
  NEL: 60 mg/kg/day
  NOAEL: ≥ 300 mg/kg/day
Rat [7]; [33]
  LEL: 300 mg/kg/day
  LOAEL: > 300 mg/kg/day
  NEL: 60 mg/kg/day
  NOAEL: ≥ 300 mg/kg/day
Mouse [8]
  LEL: 600 mg/kg/day
  LOAEL: > 600 mg/kg/day
  NEL: 300 mg/kg/day
  NOAEL: ≥ 600 mg/kg/day

## CC(C)N(C(=O)COc1nnc(C(F)(F)F)s1)c1ccc(F)cc1 [Flufenacet]
Dog [9]; systemic / clinical chemistry / alanine aminotransferase (alt/sgpt) / alanine aminotransferase (alt/sgpt) + systemic / clinical chemistry / …
  LOAEL: 26.8 mg/kg/day
Dog [9]; [34]
  LEL: 1.14 mg/kg/day
  NEL: < 1.14 mg/kg/day
Dog [9]; systemic / in life observation / body weight / body weight gain + systemic / clinical chemistry / alanine aminotransferase (alt/sgpt) / …
  NOAEL: 1.14 mg/kg/day
Mouse [10]
  LEL: 2.1 mg/kg/day
  LOAEL: 2.1 mg/kg/day
  NEL: < 2.1 mg/kg/day
  NOAEL: < 2.1 mg/kg/day
Dog [11]
  LEL: 17.3 mg/kg/day
  LOAEL: 17.3 mg/kg/day
  NEL: 3.15 mg/kg/day
  NOAEL: 3.15 mg/kg/day
Mouse [12]
  LEL: 64.2 mg/kg/day
  LOAEL: 64.2 mg/kg/day
  NEL: 18.2 mg/kg/day
  NOAEL: 18.2 mg/kg/day
Rat [13]
  LEL: 1.2 mg/kg/day
  LOAEL: 1.2 mg/kg/day
  NEL: < 1.2 mg/kg/day
  NOAEL: < 1.2 mg/kg/day
Rabbit [14]; [35]
  LEL: 125 mg/kg/day
  LOAEL: 125 mg/kg/day
Rabbit [14]; [36]
  NEL: 25 mg/kg/day
  NOAEL: 25 mg/kg/day
Rabbit [14]; [37]
  LEL: 25 mg/kg/day
  LOAEL: 25 mg/kg/day
Rabbit [14]; [38]
  NEL: 5 mg/kg/day
  NOAEL: 5 mg/kg/day
Rat [15]; [39]
  LEL: 7.3 mg/kg/day
  LOAEL: 7.3 mg/kg/day
  NEL: 1.4 mg/kg/day
  NOAEL: 1.4 mg/kg/day
Rat [15]; [40]
  LEL: 1.4 mg/kg/day
  NEL: < 1.4 mg/kg/day
Rat [15]; group: parental, systemic / pathology microscopic / liver / hypertrophy
  LOAEL: 7.3 mg/kg/day
Rat [15]; group: parental, systemic / pathology microscopic / liver / hypertrophy + systemic / pathology microscopic / liver / congestion
  NOAEL: 1.4 mg/kg/day
Dog [16]
  LEL: 1.67 mg/kg/day
  LOAEL: 6.9 mg/kg/day
  NEL: < 1.67 mg/kg/day
  NOAEL: 1.7 mg/kg/day
Rat [17]; total
  LOAEL: 6 mg/kg/day
  NOAEL: < 6 mg/kg/day
Rat [17]; [41]
  LEL: 6 mg/kg/day
  NEL: < 6 mg/kg/day
Rat [18]; [42]
  LEL: 125 mg/kg/day
  LOAEL: 125 mg/kg/day
  NEL: 25 mg/kg/day
  NOAEL: 25 mg/kg/day
Rat [18]; [33]
  LOAEL: 125 mg/kg/day
Rat [18]; [43]
  LEL: 125 mg/kg/day
  NEL: 25 mg/kg/day
  NOAEL: 25 mg/kg/day
Mouse [19]; [44]
  LOAEL: 7.4 mg/kg/day
  NOAEL: < 7.4 mg/kg/day
Mouse [19]; [45]
  LEL: 7.4 mg/kg/day
  NEL: < 7.4 mg/kg/day

## CCCCCOC(=O)COc1cc(N2C(=O)C3=C(CCCC3)C2=O)c(F)cc1Cl [Flumiclorac-pentyl]
Rat [20]; [46]
  LEL: 829 mg/kg/day
  LOAEL: 829 mg/kg/day
Rat [20]; [47]
  NEL: 18 mg/kg/day
  NOAEL: 18 mg/kg/day
Rat [20]; [48]
  LEL: 18 mg/kg/day
  NEL: < 18 mg/kg/day
Rat [20]; [49]
  LOAEL: 829 mg/kg/day
  NOAEL: 18 mg/kg/day
Rat [21]; systemic / organ weight / liver / relative to body weight + systemic / organ weight / kidney / absolute + systemic / organ weight / liver / …
  LOAEL: 360 mg/kg/day
Rat [21]; [50]
  LEL: 3.5 mg/kg/day
  NEL: < 3.5 mg/kg/day
Rat [21]; systemic / organ weight / spleen / absolute + systemic / organ weight / liver / relative to body weight + systemic / organ weight / kidney…
  NOAEL: 35.4 mg/kg/day
Dog [22]
  LEL: 100 mg/kg/day
  LOAEL: 100 mg/kg/day
  NEL: 10 mg/kg/day
  NOAEL: 10 mg/kg/day
Dog [23]
  LEL: 1000 mg/kg/day
  LOAEL: 1000 mg/kg/day
  NEL: 100 mg/kg/day
  NOAEL: 100 mg/kg/day
Rat [24]; [51]
  LEL: 659 mg/kg/day
  LOAEL: 659 mg/kg/day
Rat [24]; [52]
  NEL: 64.9 mg/kg/day
  NOAEL: 64.9 mg/kg/day
Mouse [25]
  LEL: 308 mg/kg/day
  LOAEL: 308 mg/kg/day
  NEL: 31.5 mg/kg/day
  NOAEL: 31.5 mg/kg/day
Rat [26]; [53]
  LEL: 73.8 mg/kg/day
  LOAEL: 73.8 mg/kg/day
  NEL: 7.4 mg/kg/day
  NOAEL: 7.4 mg/kg/day
Rat [26]; group: systemic, systemic / clinical chemistry / [other] / [other] + systemic / in life observation / food consumption / food efficiency + systemic / in life…
  LEL: 664 mg/kg/day
Rat [26]; group: systemic, systemic / organ weight / liver / relative to body weight
  LOAEL: 1360 mg/kg/day
Rat [26]; [54]
  NEL: 67 mg/kg/day
  NOAEL: 664 mg/kg/day
